In article PMC11522050, “Cloning, expression and characterisation of a novel mollusc α-1,2-Fucosyltransferase from Crassostrea gigas (CgFUT2)” (Glycoconjugate Journal, 2024):

Experiments:
CgFUT2 [1] = biological target: T1, CgFUT2 (Magallana gigas, UniProt A0AA95ZAK5); test: fucosyl transfer, HPLC with UV detection; product by NMR; assay type: biochemical; settings: acceptor; 3 mM GDP-Fuc, 20 mM MnCl2, MES pH 7.0, 37 °C; control Sf9 lysate without enzyme as blank
T1 construct: crude cell lysate used (purification failed)
T1 sequence (A0AA95ZAK5 1-350): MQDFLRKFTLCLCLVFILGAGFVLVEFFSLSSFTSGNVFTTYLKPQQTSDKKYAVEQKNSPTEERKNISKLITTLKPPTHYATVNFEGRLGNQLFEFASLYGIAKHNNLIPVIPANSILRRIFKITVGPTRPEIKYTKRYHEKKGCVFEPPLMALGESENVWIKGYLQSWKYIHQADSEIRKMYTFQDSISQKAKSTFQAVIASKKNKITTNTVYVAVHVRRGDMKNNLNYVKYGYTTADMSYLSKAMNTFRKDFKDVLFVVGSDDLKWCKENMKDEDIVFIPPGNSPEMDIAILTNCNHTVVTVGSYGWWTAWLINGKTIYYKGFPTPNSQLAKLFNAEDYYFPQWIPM

CgFUT2 [2] = biological target: T1, CgFUT2; test: fucosyl transfer to pNP-lactose, HPLC with UV detection; assay type: biochemical; settings: 0.25 mM GDP; 3 mM GDP-Fuc, 0.5 mM pNP-β-lactose, 20 mM MnCl2, 2 mM ATP, MES pH 7.0, 37 °C; Sf9 lysate

| SMILES | fucosyl transfer, HPLC with UV detection; product by NMR (CgFUT2 [1]) | % decrease of activity at 0.25 mM (CgFUT2 [2]) [%] |
| --- | --- | --- |
| O=[N+]([O-])c1ccc(O[C@@H]2O[C@H](CO)[C@@H](O[C@@H]3O[C@H](CO)[C@H](O)[C@H](O)[C@H]3O)[C@H](O)[C@H]2O)cc1 [pNP-β-lactose] | Sf9 cell lysate expressing CgFUT2 and a control Sf9 cell lysate was assessed using pNP-β-lactose | – |
| Nc1nc2c(ncn2[C@@H]2O[C@H](COP(=O)(O)OP(=O)(O)O)[C@@H](O)[C@H]2O)c(=O)[nH]1 [GDP] | – | 30 |
